Data from patent US11925611B2, “Use of ZT-1A and analogs thereof to prevent and/or treat neurodegenerative and neurocognitive disorders” (United States Government as Represented by the Department …, priority 2021, dated 2024).
Read-outs that look alike come from different tables or passages of the source.

Assays:
Assay type in all cases: cell-based
[1] = system: NKCC1; assay: Cellular inhibition of NKCC1 phosphorylation (pThr203); details: n = 3, — = no inhibition
Source text: (§1) 8. Cellular Activity Profile of Inhibitors with the Salicyclic Amide
(§2) A list of the compounds evaluated for their ability to inhibit phosphorylation of SPAK/NKCC1/KCC3 activity is illustrated in Table 1 below.

[2] = system: KCC3; assay: Cellular inhibition of KCC3 phosphorylation (pThr991, pThr1048); details: Isotonic conditions; n = 3; — = no inhibition; read-out: KCC3 pThr1048 (μM) Iso
Source text: as §1, §2

[3] = target: SPAK (Homo sapiens, UniProt Q9UEW8); assay: Cellular inhibition of SPAK phosphorylation (pSer373); details: 50% inhibition of phosphorylation, n = 3, — = no inhibition
Source text: as §1, §2

[4] = Hypotonic conditions, read-out: NKCC1 pThr203 (μM) hypo
[5] = Isotonic conditions, read-out: NKCC1 pThr203 (μM) Iso
[6] = Hypotonic conditions, read-out: SPAK pSer373 (μM) hypo
[7] = Isotonic conditions, read-out: SPAK pSer373 (μM) Iso

SMILES | IC50 [1, 4] [µM] | IC50 [1, 5] [µM] | IC50 [2] [µM] | IC50 [3, 6] [µM] | IC50 [3, 7] [µM]
Cc1cc(C(C#N)c2ccc(Cl)cc2)c(Cl)cc1NC(=O)c1ccccc1S (stereo not drawn) [1c (ZT-05-037-01)] | 3 | 1 | 3 | 3 | 3
Cc1cc(C(C#N)c2ccc(Cl)cc2)c(Cl)cc1NC(=O)c1ccccc1N (stereo not drawn) [1d(ZT-06-022-01)] | 3 | 1 | 3 | 3 | 3
Cc1cc(C(C#N)c2ccc(Cl)cc2)c(Cl)cc1NC(=O)c1cc(F)ccc1O (stereo not drawn) [1g(ZT-06-055-01)] | 3 | 1 | 3 | 3 | 3
Cc1cc(C(C#N)c2ccc(Cl)cc2)c(Cl)cc1NC(=O)c1cccc(F)c1O (stereo not drawn) [1h(ZT-06-039-01)] | 3 | 1 | 3 | 3 | 3

Continued, values first:

IC50 [1, 4] [µM] | IC50 [1, 5] [µM] | IC50 [2] [µM] | IC50 [3, 6] [µM] | IC50 [3, 7] [µM] | SMILES
1 | 3 | 3 | 3 | 3 | Cc1cc(C(C#N)c2ccc(Cl)cc2)c(Cl)cc1NC(=O)c1ccccc1O (stereo not drawn) [1b]
3 | 1 | 3 | 3 | 3 | Cc1cc(C(C#N)c2ccc(Cl)cc2)c(Cl)cc1NC(=O)c1cc(Cl)cc(Cl)c1O (stereo not drawn) [1f]
